The source made the active and inactive calls.
Experiments:
Assay type in all cases: functional
[1] = biological target: Delta-type opioid receptor (Homo sapiens, UniProt P41143); assay: Counterscreen for agonists of heterodimerization of the mu 1 (OPRM1) and delta 1 (OPRD1) opioid receptors: Luminescence-based cell-based high throughput dose response assay to identify agonists of OPRD1 homodimerization. [Related pubchem assays (depositor defined):AID504326, AID504355, AID504692, AID504904, AID504905]
Sequence of Delta-type opioid receptor (P41143 whole entry): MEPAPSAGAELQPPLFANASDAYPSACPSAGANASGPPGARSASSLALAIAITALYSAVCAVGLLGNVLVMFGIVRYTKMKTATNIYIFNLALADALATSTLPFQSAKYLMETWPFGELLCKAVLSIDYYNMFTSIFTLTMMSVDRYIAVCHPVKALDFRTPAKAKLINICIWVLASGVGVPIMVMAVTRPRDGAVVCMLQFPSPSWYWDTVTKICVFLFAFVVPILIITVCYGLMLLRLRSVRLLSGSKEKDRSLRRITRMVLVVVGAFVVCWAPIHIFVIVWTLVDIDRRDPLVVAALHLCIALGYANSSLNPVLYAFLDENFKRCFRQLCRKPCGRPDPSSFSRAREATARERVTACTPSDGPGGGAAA

[2] = biological target: 5-hydroxytryptamine receptor 5A (Homo sapiens, UniProt P47898); assay: Counterscreen for agonists of OPRM1-OPRD1 heterodimerization: luminescence-based cell-based high throughput dose response assay to identify agonists of 5-hydroxytryptamine (serotonin) 5A receptor (HTR5A). [Related pubchem assays (depositor defined):AID504326, AID504355, AID504692, AID504904, AID504905]
Sequence of 5-hydroxytryptamine receptor 5A (P47898 whole entry): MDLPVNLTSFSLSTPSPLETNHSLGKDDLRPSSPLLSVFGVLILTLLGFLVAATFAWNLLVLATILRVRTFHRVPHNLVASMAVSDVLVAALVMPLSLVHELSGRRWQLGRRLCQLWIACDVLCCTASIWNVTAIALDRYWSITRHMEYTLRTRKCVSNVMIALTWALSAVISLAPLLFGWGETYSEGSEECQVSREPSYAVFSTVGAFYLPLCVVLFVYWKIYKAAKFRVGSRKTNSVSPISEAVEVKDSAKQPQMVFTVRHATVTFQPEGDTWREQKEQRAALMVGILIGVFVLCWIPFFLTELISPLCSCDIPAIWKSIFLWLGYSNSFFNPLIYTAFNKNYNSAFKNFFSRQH

[3] = biological target: T1, Short transient receptor potential channel 4 (Mus musculus, UniProt Q9QUQ5); assay: mouse TRPC4 channel activators, dose response, cell-based, HEK293 TRPC4/mu-opioid, Fluo-4 calcium (AID 434937)
T1 sequence (Q9QUQ5 whole entry): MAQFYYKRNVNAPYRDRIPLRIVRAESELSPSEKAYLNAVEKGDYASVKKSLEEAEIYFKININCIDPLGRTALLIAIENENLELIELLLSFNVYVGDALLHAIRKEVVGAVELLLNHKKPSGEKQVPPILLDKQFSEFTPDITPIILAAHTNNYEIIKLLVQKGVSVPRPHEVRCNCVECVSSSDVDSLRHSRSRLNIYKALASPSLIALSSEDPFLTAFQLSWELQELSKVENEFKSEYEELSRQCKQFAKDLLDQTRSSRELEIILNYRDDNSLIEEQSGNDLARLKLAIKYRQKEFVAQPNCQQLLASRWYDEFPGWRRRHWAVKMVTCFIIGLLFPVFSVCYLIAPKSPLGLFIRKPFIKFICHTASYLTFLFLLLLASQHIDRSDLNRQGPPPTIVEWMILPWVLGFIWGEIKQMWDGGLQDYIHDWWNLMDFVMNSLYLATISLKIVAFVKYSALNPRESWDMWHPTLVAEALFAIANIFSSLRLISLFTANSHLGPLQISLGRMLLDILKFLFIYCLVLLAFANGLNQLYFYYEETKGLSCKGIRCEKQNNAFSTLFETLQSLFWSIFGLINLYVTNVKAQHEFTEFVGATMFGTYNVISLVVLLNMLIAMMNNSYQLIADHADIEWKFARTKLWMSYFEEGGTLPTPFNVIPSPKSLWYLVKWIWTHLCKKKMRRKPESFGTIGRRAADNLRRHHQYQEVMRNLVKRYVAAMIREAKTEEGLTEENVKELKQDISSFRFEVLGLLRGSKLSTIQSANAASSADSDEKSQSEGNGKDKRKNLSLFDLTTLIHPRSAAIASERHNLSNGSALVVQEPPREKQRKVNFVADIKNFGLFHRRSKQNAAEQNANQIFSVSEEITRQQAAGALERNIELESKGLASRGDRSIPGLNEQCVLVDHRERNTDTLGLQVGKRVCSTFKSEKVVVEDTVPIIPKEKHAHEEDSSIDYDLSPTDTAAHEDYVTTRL

Mu-type opioid receptor = Mu-type opioid receptor (Homo sapiens, UniProt P35372); assay: Counterscreen for agonists of heterodimerization of the mu 1 (OPRM1) and delta 1 (OPRD1) opioid receptors: Luminescence-based cell-based high throughput dose response assay to identify agonists of OPRM1 homodimerization.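 Further: U2OS cells expressing OPRM1 and beta-arrestin as split beta-galactosidase partners.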
Sequence of Mu-type opioid receptor (P35372 whole entry): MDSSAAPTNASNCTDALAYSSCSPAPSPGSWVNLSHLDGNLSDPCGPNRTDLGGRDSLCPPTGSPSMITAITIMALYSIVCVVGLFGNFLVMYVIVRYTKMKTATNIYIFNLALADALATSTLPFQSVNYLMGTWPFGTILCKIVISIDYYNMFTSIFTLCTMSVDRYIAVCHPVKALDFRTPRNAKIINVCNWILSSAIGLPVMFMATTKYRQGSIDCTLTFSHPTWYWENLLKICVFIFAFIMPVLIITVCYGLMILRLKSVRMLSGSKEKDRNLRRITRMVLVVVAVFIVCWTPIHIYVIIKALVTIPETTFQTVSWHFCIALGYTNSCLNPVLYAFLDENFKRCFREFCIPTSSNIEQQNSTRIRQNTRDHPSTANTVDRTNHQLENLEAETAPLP

Structure (SMILES): CN(C)CCCN(C(=O)c1ccc(S(=O)(=O)N2CCc3ccccc3C2)cc1)c1nc2c(F)cc(F)cc2s1
- EC50 [1]: > 92.5 µM (inactive)
- EC50 [2]: > 92.5 µM (inactive)
- EC50 [3]: 1.19 µM (active)
- EC50 (Mu-type opioid receptor): 5.1 µM (active)

Structure (SMILES): CCc1cccc(C)c1N=C(S)NCC(c1cccnc1)N(C)C (stereo not drawn)
- EC50 [1]: 79.4 µM (inactive)
- EC50 [2]: > 92.5 µM (inactive)
- EC50 [3]: 0.0467 µM (active)
- EC50 (Mu-type opioid receptor): > 92.5 µM (inactive)

Reference: ChEMBL document CHEMBL1201862, “PubChem BioAssay data set” (2004)
